Laboratory results from ChEMBL document CHEMBL4418495, “Entpd5 inhibitors” (2012).
The source made the active and inactive calls. The rule behind the calls is not given here.

Experiments:
[1] = biological target: T1, Nucleoside diphosphate phosphatase ENTPD5 (Homo sapiens) (UniProt O75356); experiment: Inhibition of human recombinant ENTPD5 expressed in insect cells assessed as reduction in UDP hydrolysis up to 10 uM incubated for 1 hr in presence of UMP, GTP and ATP by Escherichia coli UMP kinase pyrH catalyzed UMP phosphorylation coupled luciferase assay
T1 sequence (whole entry): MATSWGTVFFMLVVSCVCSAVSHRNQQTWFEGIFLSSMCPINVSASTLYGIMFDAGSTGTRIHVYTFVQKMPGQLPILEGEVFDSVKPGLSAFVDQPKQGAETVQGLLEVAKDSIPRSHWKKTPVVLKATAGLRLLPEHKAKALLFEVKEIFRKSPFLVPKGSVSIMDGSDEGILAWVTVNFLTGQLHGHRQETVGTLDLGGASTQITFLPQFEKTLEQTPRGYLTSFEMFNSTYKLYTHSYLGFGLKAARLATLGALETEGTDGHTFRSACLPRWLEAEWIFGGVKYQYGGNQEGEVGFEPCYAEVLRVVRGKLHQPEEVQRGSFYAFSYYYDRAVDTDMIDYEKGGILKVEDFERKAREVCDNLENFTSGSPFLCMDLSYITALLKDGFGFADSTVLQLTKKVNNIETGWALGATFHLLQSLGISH

[2] = biological target: T2, Uridylate kinase (Escherichia coli (strain K12)) (UniProt P0A7E9); experiment: Inhibition of recombinant Escherichia coli UMP kinase pyrH catalyzed UMP phosphorylation in presence of GTP and ATP incubated for 1 hr by luminescence based assay
T2 sequence (whole entry): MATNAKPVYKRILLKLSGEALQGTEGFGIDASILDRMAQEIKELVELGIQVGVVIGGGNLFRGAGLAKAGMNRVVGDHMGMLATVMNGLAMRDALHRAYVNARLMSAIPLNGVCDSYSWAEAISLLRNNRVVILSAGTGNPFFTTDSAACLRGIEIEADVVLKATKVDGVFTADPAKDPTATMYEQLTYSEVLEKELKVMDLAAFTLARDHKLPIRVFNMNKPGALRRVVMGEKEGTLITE

[3] = biological target: T1, Nucleoside diphosphate phosphatase ENTPD5 (Homo sapiens); experiment: Inhibition of human recombinant ENTPD5 expressed in insect cells assessed as reduction in reduction in UDP hydrolysis by measuring inorganic phosphate release incubated for 1 hr by malachite green based assay
[4] = biological target: T1, Nucleoside diphosphate phosphatase ENTPD5 (Homo sapiens); experiment: Inhibition of human recombinant ENTPD5 expressed in insect cells assessed as reduction in UDP hydrolysis at 1 uM incubated for 1 hr in presence of UMP, GTP and ATP by Escherichia coli UMP kinase pyrH catalyzed UMP phosphorylation coupled luciferase assay

inhibition [1]	inhibition [2]	inhibition [3]	inhibition [4]	Structure (SMILES)
Dose-dependent effect	inactive	Active	Active	C=C[S+]([O-])c1sc(Cl)c(N2CCN(c3c(Cl)sc([S+]([O-])C=C)c3[N+](=O)[O-])CC2)c1[N+](=O)[O-] (configuration not stated)
Dose-dependent effect	inactive	Active	Active	COC(=O)c1cccc2c1NC(c1ccc([N+](=O)[O-])cc1)C1CC=CC21 (configuration not stated)
Dose-dependent effect	inactive	Active	Active	Cc1ccc(-c2csc3nc(SCc4c(C)noc4C)n(-c4ccccc4)c(=O)c23)o1
Dose-dependent effect	inactive	Active	Active	O=C1N=C(Nc2cccc(Cl)c2Cl)S/C1=C/c1ccc(OCc2ccc(C(=O)O)cc2)c(Br)c1
Dose-dependent effect	inactive	Active	Active	Cc1nn2cc(-c3ccccc3)cc2c2c(C)n(C)c(C)c12
Dose-dependent effect	inactive	Active	Active	O=C1Nc2ccc(Br)cc2/C1=C1/SC(=S)N(c2ccc(Cl)cc2)C1=O
Dose-dependent effect	inactive	Active	Active	S=C(NCc1ccccc1)Nc1ccc2nc(-c3ccco3)c(-c3ccco3)nc2c1
Dose-dependent effect	inactive	Active	Active	Cc1ccc(-c2ccc(C=C3C(=O)NC(=O)NC3=O)o2)c(Br)c1
Dose-dependent effect	inactive	Active	Active	S=C(Nc1ccccc1)Nc1ccc2nc(-c3ccco3)c(-c3ccco3)nc2c1
Dose-dependent effect	inactive	Active	Active	CCc1ccc(NC2=NC(=O)/C(=C/c3cc(Cl)c(OCC(=O)O)c(Cl)c3)S2)cc1
Dose-dependent effect	inactive	Active	Active	N#CC1=C(N)n2c(s/c(=C\c3cc(Br)ccc3O)c2=O)=C(C#N)C1c1cc(Br)ccc1O (configuration not stated)
Dose-dependent effect	inactive	Active	Active	O=C(O)c1cccc(N2N=C(C(F)(F)F)/C(=C/c3ccc(-c4ccc(S(=O)(=O)Nc5nccs5)cc4)o3)C2=O)c1
Dose-dependent effect	inactive	Active	Active	COc1cc(-c2ccc(/C=C/c3[nH]c(=O)[nH]c(=O)c3[N+](=O)[O-])o2)c(OC)cc1Cl
Dose-dependent effect	inactive	Active	Active	CC1=NN(c2ccc(S(N)(=O)=O)cc2)C(=O)/C1=C/c1ccc(-c2ccc(C)cc2[N+](=O)[O-])o1
Dose-dependent effect	inactive	Active	Active	C=CCN1C(=O)/C(=C\c2cccn2C)C(=O)NC1=S
Dose-dependent effect	inactive	Active	Active	O=C(O)c1ccc(NC(=O)c2ccc3c(c2)C(=O)N(c2ccc(/N=N/c4ccccc4)cc2)C3=O)cc1
Dose-dependent effect	inactive	Active	Active	O=C1/C(=C/c2ccc(-c3ccc(Br)cc3)o2)SC(=S)N1Cc1ccco1
Dose-dependent effect	inactive	Active	Active	O=C(/C=C/c1ccco1)/C=C/c1ccc(-c2ccc(Br)cc2)o1
